We go through 14 compounds from PubChem BioAssay (NCI).

The structures appear in SMILES notation.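 Method: 48-hour compound exposure of cells in 96-well plates, five concentrations, linear interpolation of endpoints. At the TGI there is no net growth.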 Where a SMILES comes first, the peptide text is derived from it. [ ]: non-standard residue; d: D form. The star is where a group is joined. Phe(4-NO2) = N[CH](Cc1ccc([N+](=O)[O-])cc1)C(=O)O; Boc = CC(C)(C)OC(=O)*; OtBu = CC(C)(C)O*

Some test systems named below: K-562 leukemia; OVCAR-5 ovarian; TK-10 renal; HCT-15 colon; OVCAR-3 ovarian; SF-268 CNS; PC-3 prostate; HOP-62 NSCLC; BT-549 breast; LOX IMVI melanoma.
Assay in all cases: growth of human tumour cells (NCI), 48 h

Regarding `CN(Cc1nc2c(N)nc(N)nc2nc1N)c1ccc(C(=O)NC(CCC(=O)O)C(=O)O)cc1` (stereo not given), the TGI in the assay with K-562 leukemia, in the assay with OVCAR-5 ovarian, with TK-10 renal, with HCT-15 colon, with OVCAR-3 ovarian and in the assay on SF-268 CNS was above 100 µM throughout. Besides, the TGI with PC-3 prostate, with HOP-62 NSCLC, with BT-549 breast and in the assay with LOX IMVI melanoma was above 100 µM in each case.

Regarding `COC(=O)C(Cc1ccc([N+](=O)[O-])cc1)NC(=O)C(CC(=O)OC(C)(C)C)NC(=O)OC(C)(C)C` (stereo not given) (Boc-Asp(OtBu)-[Phe(4-NO2)]-OMe; configuration not given here), the TGI with K-562 leukemia, in the assay on OVCAR-5 ovarian, in the assay on TK-10 renal, in the assay on HCT-15 colon, in the assay on OVCAR-3 ovarian and in the assay with SF-268 CNS was above 100 µM in each case. In addition, the TGI was above 100 µM in the assay with PC-3 prostate, above 100 µM in the assay with HOP-62 NSCLC, above 100 µM in the assay with BT-549 breast and 49 µM in the assay on LOX IMVI melanoma.

With `O=C(O)c1ccc(Nc2cnc3ccc(C(F)(F)F)cc3n2)cc1`, the TGI in the assay with K-562 leukemia was 51.4 µM; in the assay with OVCAR-5 ovarian, above 100 µM; in the assay with TK-10 renal, 44.8 µM; in the assay on HCT-15 colon, 36.8 µM; in the assay on OVCAR-3 ovarian, 98.1 µM; in the assay on SF-268 CNS, above 100 µM. In addition, the TGI with PC-3 prostate stood at 42.6 µM; with HOP-62 NSCLC it was 38.9 µM; in the assay on BT-549 breast, 60.1 µM; with LOX IMVI melanoma, 24.5 µM.

As for `N#Cc1nnc2c3c(-c4ccc(Cl)cc4)c(C#N)c(=O)[nH]c3nn2c1N`, the TGI in the assay on K-562 leukemia was above 41.6 µM; with OVCAR-5 ovarian, 65.4 µM; with TK-10 renal, above 100 µM; with HCT-15 colon it was 30.9 µM; in the assay on OVCAR-3 ovarian it was 8.08 µM; in the assay with SF-268 CNS, 12.6 µM. The TGI in the assay on PC-3 prostate stood at 24.5 µM; in the assay on HOP-62 NSCLC, 21.8 µM; with BT-549 breast it was 10.3 µM; in the assay with LOX IMVI melanoma, 8.01 µM.

As for `C/C=C\C(CC(=O)O)CC(=O)NCCC1CN(S(=O)(=O)C(F)(F)F)c2ccccc21` (stereo not given), the TGI in the assay on K-562 leukemia, with OVCAR-5 ovarian, in the assay on HCT-15 colon, with OVCAR-3 ovarian, in the assay with SF-268 CNS and with PC-3 prostate was above 100 µM in each case. The TGI in the assay on HOP-62 NSCLC, in the assay with BT-549 breast and with LOX IMVI melanoma was above 100 µM throughout.

For the compound `COc1ccc(-c2c(C(C)=O)c(C)n(C3OC(CO)C(O)C(O)C3O)c(=S)c2C#N)cc1` (stereo not given), the TGI in the assay with K-562 leukemia, with OVCAR-5 ovarian, in the assay with TK-10 renal, in the assay on HCT-15 colon, in the assay with OVCAR-3 ovarian and in the assay on SF-268 CNS was above 100 µM in each case. The TGI with PC-3 prostate, with HOP-62 NSCLC, with BT-549 breast and in the assay on LOX IMVI melanoma was above 100 µM throughout.

On to `Cc1ccc(S(=O)(=O)NC(=O)NS(=O)(=O)O)cc1`, for which the TGI in the assay with K-562 leukemia, in the assay with OVCAR-5 ovarian, in the assay with TK-10 renal, with HCT-15 colon, in the assay with SF-268 CNS and in the assay on PC-3 prostate was above 100 µM throughout. The TGI in the assay with HOP-62 NSCLC, in the assay on BT-549 breast and in the assay on LOX IMVI melanoma was above 100 µM each time.

Take `O=C(NCCCCl)c1c(O)c2ccccc2[nH]c1=O`: the TGI with K-562 leukemia, in the assay with OVCAR-5 ovarian, in the assay on TK-10 renal, with HCT-15 colon, in the assay on OVCAR-3 ovarian and in the assay on SF-268 CNS was above 100 µM in each case. The TGI in the assay with PC-3 prostate, in the assay with HOP-62 NSCLC, in the assay with BT-549 breast and with LOX IMVI melanoma was above 100 µM in each case.

In the case of `CCCCCCCC(CC(=O)O)OC(=O)CC(CCCCCCC)OC1OC(C)C(O)C(O)C1OC1OC(C)C(O)C(O)C1O` (stereo not given), the TGI in the assay on K-562 leukemia, in the assay with OVCAR-5 ovarian, in the assay with HCT-15 colon, in the assay with OVCAR-3 ovarian, in the assay with SF-268 CNS and with PC-3 prostate was above 100 µM each time. For the same compound, the TGI with HOP-62 NSCLC, in the assay with BT-549 breast and in the assay with LOX IMVI melanoma was above 100 µM throughout.

Consider `c1ccc(C/C(=N\Nc2nc3ccccc3o2)c2ccccn2)cc1`, for which the TGI in the assay on K-562 leukemia worked out at 3.66 µM; in the assay with TK-10 renal, 1.81 µM; in the assay on HCT-15 colon it was 4.64 µM; with OVCAR-3 ovarian, 0.0301 µM; with SF-268 CNS, 0.921 µM; in the assay with PC-3 prostate, 5.68 µM. Further, the TGI with HOP-62 NSCLC was 1.55 µM; in the assay on BT-549 breast it was 5.73 µM; with LOX IMVI melanoma, 2.27 µM.

With `COC(=O)c1ccc(OCc2ccc3nc(-c4ccccc4)c(Cl)nc3c2)cc1`, the TGI in the assay on OVCAR-5 ovarian, in the assay on TK-10 renal, in the assay with HCT-15 colon, with OVCAR-3 ovarian, in the assay on SF-268 CNS and in the assay on PC-3 prostate was above 100 µM throughout. Besides, the TGI with HOP-62 NSCLC, in the assay on BT-549 breast and in the assay on LOX IMVI melanoma was above 100 µM throughout.

`COc1ccc(NC(=O)C2=C(SC)C(=O)N=C2N)cc1`: the TGI with K-562 leukemia, with TK-10 renal, in the assay with HCT-15 colon, in the assay on SF-268 CNS, in the assay with PC-3 prostate and in the assay with HOP-62 NSCLC was above 100 µM each time. For the same compound, the TGI with BT-549 breast and with LOX IMVI melanoma was above 100 µM throughout.

Take `C=C1c2nc3ccccc3n2C=C(c2ccccc2)N1c1ccc(OC)cc1`: the TGI is above 100 µM in the assay on K-562 leukemia; above 100 µM with OVCAR-5 ovarian; 26.1 µM with TK-10 renal; 20.3 µM with HCT-15 colon; above 100 µM with OVCAR-3 ovarian; above 100 µM in the assay with PC-3 prostate. Moreover, the TGI with BT-549 breast was 38.3 µM; in the assay on LOX IMVI melanoma it was above 100 µM.

For the compound `COc1cccc(N2N=C3c4ccccc4-n4c(nc5ccccc54)C3C2N)c1` (stereo not given), the TGI in the assay on OVCAR-5 ovarian, in the assay on TK-10 renal, in the assay with HCT-15 colon, with OVCAR-3 ovarian, in the assay with SF-268 CNS and in the assay on PC-3 prostate was above 100 µM throughout. In addition, the TGI in the assay on HOP-62 NSCLC, in the assay with BT-549 breast and with LOX IMVI melanoma was above 100 µM each time.
